Experimental data as given in patent US20170298347A1, “NOVEL FUSION-CIRCULAR RNAs AND USES THEREOF” (BETH ISRAEL DEACONESS MEDICAL CENTER, priority 2016, published 2017).

System: K562 cells
Assay: Apoptosis (AnnexinV/7-AAD) in K562 cells treated with Ara-C or ATO
Assay type: cell-based, human
Conditions: K562 transduced with empty vector; ATO 1 μM, Ara-C 0.5 μM
Procedure: K562 cells (Lozzio and Lozzio, 1979) were then transduced with viral vectors expressing f-circM9. Cells transduced only with an empty vector were used as control. F-circM9-expressing cells were sorted for a pure population and were subsequently subjected to treatment with Ara-C and ATO. […] On the contrary, clear differences were noticed in treated cells.
THP-1, K562, U937, HL-60, Kasumi and NB4 cell lines were maintained in RPMI medium supplemented with 10% FBS. MEFs Arf−/− cells were grown in DMEM supplemented with 10% FBS. Primary leukemic cells transduced with MLL/AF9 cDNA were maintained in StemSpan medium (Stem Cell Technologies) supplemented with IL6 (15 ng/ml), IL3 (15 ng/ml) TPO (50 ng/ml) and SCF (50 ng/ml) during the transduction with retroviral vectors. Cells were grown at 37° C. in a 5% CO2 humidified incubator. Fractionation of the cells to separate nucleus and cytoplasm has been performed using PARIS-kit (Ambion) following the manufacturer's instructions. The efficiency of the separation of the 2 fractions was assessed by Western blot analysis of β-actin (cytosol) and […] (nucleus). […]
Apoptotic cells were analyzed with 7AAD and Annexin-V-APC. Cells were stained for 15 minutes with both markers and then analyzed using LRSII (BD, Pharmingen).

Molecule | apoptosis upon drug treatment
Arsenic trioxide [ATO] | signs of apoptosis
Nc1ccn([C@@H]2O[C@H](CO)[C@@H](O)[C@@H]2O)c(=O)n1 [Ara-C, cytarabine] | signs of apoptosis
